The text below walks through data of US11957699B2, “Composition comprising punicalagin for inhibiting PAR2 activity” (INDUSTRY-ACADEMIC COOPERATION FOUNDATION, YONSEI UNIVERSITY, priority 2018, dated 2024).

Broadly, the pIC50 is the IC50 on a negative log10 scale, so that one unit is a factor of ten.

pIC50: −log10 of the molar value.

The target of this experiment is T1, PAR2 (Homo sapiens, UniProt P55085).
T1 sequence (P55085 26-397): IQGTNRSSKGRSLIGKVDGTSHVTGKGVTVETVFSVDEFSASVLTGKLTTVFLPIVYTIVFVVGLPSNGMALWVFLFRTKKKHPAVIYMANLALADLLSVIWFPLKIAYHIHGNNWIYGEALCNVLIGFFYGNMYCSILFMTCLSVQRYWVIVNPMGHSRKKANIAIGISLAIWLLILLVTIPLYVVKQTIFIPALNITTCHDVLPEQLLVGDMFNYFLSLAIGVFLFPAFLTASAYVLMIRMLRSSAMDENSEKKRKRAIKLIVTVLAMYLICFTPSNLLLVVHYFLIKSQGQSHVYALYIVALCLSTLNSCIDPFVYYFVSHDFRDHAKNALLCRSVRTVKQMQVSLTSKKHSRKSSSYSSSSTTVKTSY
Kind of experiment: Increase of intracellular calcium ions by PAR2-AP in HT-29 cells (Fluo4-NW). Conditions: HT-29 cells. The class given is cell-based. Also noted: endogenous in cells; host or cells: HT-29 colon cancer cells. As to the method: After colon cancer cells (HT-29) were cultured for 48 hours in a 96-well micro plate with the RPMI1640 culture medium, the culture medium was removed, and then, 100 μL of the Flou4-NW dye mixture was added. While blocking the light, it was stabilized for 1 hour such that a calcium ion dye (Ca^2+ dye) was loaded into the cells. Next, after treating punicalin (0, 3, 10, and 30 μM), punicalagin (0, 0.3, 1, 2, 3, and 10 μM), or ellagic acid (0, 30, and 100 μM) for 10 minutes by concentration, each well was treated with 30 μM PAR2-AP (PAR2-activating peptide, SLIGRL-NH2) to measure the concentration change in intracellular calcium ions.
For orientation: A change in cytosolic calcium serves as a functional read-out for many receptors and channels.

With `O=CC1OC(=O)c2cc(O)c(O)c(O)c2-c2c(cc(O)c(O)c2O)C(=O)OC1C1OC(=O)c2cc(O)c(O)c(O)c2-c2c(O)c(O)c3oc(=O)c4c(c(O)c(O)c5oc(=O)c2c3c54)-c2c(cc(O)c(O)c2O)C(=O)OCC1O` (centres unmarked) [punicalagin, 1,2,3,11,12,13-hexahydroxy-5,10-dioxo-8-[3,4,5,11,17,18,19,22,23,34,35-undecahydroxy-8,14,26,31-tetraoxo-9,13,25,32-tetraoxaheptacyclo[25.8.0.0^2,7.0^15,20.0^21,30.0^24,29.0^28,33]pentatnaconta-1(35),2,4,6,15,17,19,21,23,27,29,33-dodecaen-10-yl]-5,7,8,10-tetrahydrodibenzo[f,h][1,4]dioxecin-7-carbaldehyde], under “30 μM PAR2-AP, 10 minutes pretreatment, read-out: IC50, inhibition of the PAR2 receptor (intracellular calcium increase by PAR2-AP)”, the pIC50 is 5.84. Moreover, the “strength of PAR2 receptor inhibition compared to punicalin” value (PAR2-AP) is on record as at least 10 times.
